From PMC6367069 (Rapid communications in mass spectrometry : RCM, 2019)
Read-outs that look alike come from different tables or passages of the source.

Key:
PPARγ [1] = biological target: T1, PPARγ (Homo sapiens, UniProt P37231); conditions: for binding to immobilized PPARγ (SPR binding analysis): 50 μM and 100 μM analyte, 25 °C; for Kd: single cycle kinetics, heterogeneous ligand model
T1 sequence (P37231 1-505): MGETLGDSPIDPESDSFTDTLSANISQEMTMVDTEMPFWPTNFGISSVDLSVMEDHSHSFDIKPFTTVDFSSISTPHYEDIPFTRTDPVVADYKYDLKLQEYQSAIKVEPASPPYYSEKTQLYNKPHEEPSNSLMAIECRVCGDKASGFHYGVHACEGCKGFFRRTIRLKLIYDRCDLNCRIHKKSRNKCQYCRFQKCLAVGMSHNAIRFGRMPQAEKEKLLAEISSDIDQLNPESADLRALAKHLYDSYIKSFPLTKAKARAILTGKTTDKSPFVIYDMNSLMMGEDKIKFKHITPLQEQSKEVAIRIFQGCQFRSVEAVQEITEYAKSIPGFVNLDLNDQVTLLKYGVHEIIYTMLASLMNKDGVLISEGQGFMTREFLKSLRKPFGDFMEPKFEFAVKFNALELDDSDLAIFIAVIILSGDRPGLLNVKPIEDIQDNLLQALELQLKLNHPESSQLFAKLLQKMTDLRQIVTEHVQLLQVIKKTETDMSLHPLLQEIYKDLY

PPARγ [2] = conditions: endogenous ligand of PPARγ; cited from earlier work

| SMILES | binding to immobilized PPARγ (SPR binding analysis) (PPARγ [1]) | Kd (PPARγ [1]; read-out: Kd1) [µM] | Kd (PPARγ [1]; read-out: Kd2) [µM] | EC50 (PPARγ [2]) [µM] |
| --- | --- | --- | --- | --- |
| CCCCC/C=C/C=C1/C(=O)C=C[C@@H]1C/C=C\CCCC(=O)O [15Δ-PGJ2, 15-deoxy-delta-12,14-prostaglandin J2] | direct binding | 10 | 311 | 2 |
| CCCCC(CC)COC(=O)c1ccccc1C(=O)OCC(CC)CCCC (centres unmarked) [DEHP, di-(2-ethylhexyl)phthalate] | almost no detectable binding | – | – | – |
